# Measured values reported in patent publication US9382224B2, “7-acyloxychromen-4-one derivatives and the use thereof as self-tanning substances” (MERCK PATENT GMBH, priority 2011, dated 2016).
# What was measured:
# [1] = system: tissue samples taken from the stomach tissue of a person; experiment: Ex vivo study on the promotion of melanogenesis: chromatometry of tissue samples; format: cell-based, human; details: for % L: D10 versus D0
# Description: (§1) The tissue samples having a diameter of 10 mm are taken from the stomach tissue of a person and stored in BEM medium at 37° C. in a moist atmosphere having a CO2 content of 5%. The tissue samples are employed in accordance with the following test plan:
# (§2) 30 μl of test solution are placed on a filter paper and immediately laid on the tissue sample.
# (§3) The irradiations are carried out daily before treatment of the tissue samples with test solutions. An RMX 3W Vilbert Lourmat instrument is used. The UV dose is 1.04 J/cm2 comprising 6/8% of UVB.
# The colour coordinates of the tissue samples are determined by means of a Minolta CM 2600d chromatometer.
# [2] = system: melanocytes and keratinocytes of tissue samples taken from the stomach tissue of a person; experiment: Ex vivo study on the promotion of melanogenesis: histological analysis, melanin visualisation; format: cell-based, human; details: for activity of the melanocytes / melanin content in basal keratinocytes / melanin content in suprabasal keratinocytes / melanin in basal keratinocytes: treatment for 10 days
# Description: as §1, §2, §3
# On the first day (D0), 3 untreated tissue samples are halved, and in each case one half is fixed in buffered formalin solution. The respective other halves are frozen at −80° C.
# After fixing for 24 hours in buffered formalin solution, the samples are dehydrated in a Leica TP1010 automatic dryer and impregnated with paraffin. After embedding with the aid of a Leica EG1160 station, 5 μm thin cross sections are produced from the samples using a Leica RM 2125 Minot-type microtome.
# The cross sections are mounted on Superfrost Plus specimen slides made from silanised glass. The light-microscopy analysis is carried out by means of a Leica Orthoplan microscope with 25-times magnification in order to assess the general morphology or 40-times magnification in order to visualise the melanin.
# The melanin visualisation is carried out after impregnation of the paraffinised cross-sections with silver in accordance with Masson in the Fontana variant.
# [3] = with UV irradiation, after 10 days
# [4] = without UV irradiation, after 10 days
Structure (SMILES),tanning activity in the ex vivo experiment [1],activity indicated by chromatometric analysis ([1]; with UV irradiation),"L ([1]; with UV irradiation, D0)","L ([1]; with UV irradiation, D10)",% L ([1]; with UV irradiation) [%],"change in the L parameter (in words) [1, 3]",activity indicated by chromatometric analysis ([1]; without UV irradiation),"L ([1]; without UV irradiation, D0)","L ([1]; without UV irradiation, D10)",% L ([1]; without UV irradiation) [%],"increase in the L parameter [1, 4] [%]",activity of the melanocytes ([2]; with UV irradiation),melanin content in basal keratinocytes ([2]; with UV irradiation),melanin content in suprabasal keratinocytes ([2]; with UV irradiation),activity of the melanocytes ([2]; without UV irradiation),melanin content in suprabasal keratinocytes ([2]; without UV irradiation),melanin in basal keratinocytes ([2]; without UV irradiation),"light/dark parameter L drops by [1, 3] [%]","decrease in the L parameter [1, 4] [%]","increase of the area of the basal layer occupied by melanin ([2]; without UV irradiation, compared with the untreated control) [%]"
CC(=O)c1cc(O)c2c(=O)cc(C)oc2c1 [5-hydroxy-7-acetyl-2-methylchromen-4-one],no tanning activity,skin-lightening activity,63.66,64.87,1.9,increase in the L parameter,skin-lightening activity,62.19,63.98,2.9,2.9,low activity,moderate,low,very low activity,low,moderate,,,
COc1cc(O)c2c(=O)cc(C)oc2c1 [5-hydroxy-7-methoxy-2-methylchromen-4-one],,skin-lightening activity,63.63,64.60,1.5,increase in the L parameter,skin-lightening activity,61.50,64.64,5.1,,very low activity,moderate,low,very low activity,low,moderate,,,
"CCCCCCCCCCCCCCCC(=O)Oc1cc(O)c2c(=O)cc(C)oc2c1 [compound Ia, 5-hydroxy-2-methyl-4-oxo-4H-chromen-7-yl hexadecanoate]",,clear pro-pigmenting activity,64.07,61.52,−4,,pro-pigmenting activity,64.53,61.24,−5.1,,high degree of activity,high,moderate,very high activity,moderate,readily detectable,4.0,5.1,43
